pIC50: −log10 of the molar value.

Assay [1] deals with T1, human cloned dopamine D3 receptors (Homo sapiens, UniProt P35462).
T1 construct: expressed in transfected cells; host or cells: CHO cells
Description: Inhibition of the binding of [3H]-Spiperone to human D3 receptors. The settings on record: [3H]Spiperone 0.3 nM; for pIC50: membranes of CHO-cells, read-out: D3-bind. IC50; for inhibition at 0.05 µM: test compound at 50 nM, read-out: D3-bind. % inhibition of binding at 50 nM. How it is done: Inhibition of the Binding of [^3H]-Spiperone to Human D3 Receptors
By this method the inhibition by drugs of the binding [^3H]Spiperone (0.3 nM) to membranes of human cloned dopamine D3 receptors expressed in CHO-cells is determined in vitro. Method modified from R. G. MacKenzie et al. Eur. J. Pharm.-Mol. Pharm. Sec. 1994, 266, 79-85. The results are given in the following Table 1 as IC50-values or as percent inhibition of the binding of ^3H-Spiperone at the concentration of the test compound indicated.

The target in assay [2] is T2, human cloned dopamine D4.2 receptors (Homo sapiens, UniProt P21917, DEL265-296).
T2 construct: expressed in transfected cells; host or cells: CHO cells
T2 sequence (P21917 with tags, fused parts or gaps DEL265-296): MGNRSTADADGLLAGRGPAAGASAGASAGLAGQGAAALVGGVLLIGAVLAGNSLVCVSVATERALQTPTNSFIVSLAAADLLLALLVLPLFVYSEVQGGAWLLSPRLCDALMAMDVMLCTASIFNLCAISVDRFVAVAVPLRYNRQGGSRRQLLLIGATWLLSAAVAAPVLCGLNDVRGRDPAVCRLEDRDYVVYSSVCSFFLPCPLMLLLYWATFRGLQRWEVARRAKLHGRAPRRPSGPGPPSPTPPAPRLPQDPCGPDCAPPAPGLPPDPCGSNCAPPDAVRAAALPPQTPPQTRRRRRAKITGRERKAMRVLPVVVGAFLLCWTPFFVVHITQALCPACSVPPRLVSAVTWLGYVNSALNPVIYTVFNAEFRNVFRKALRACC
The assay is described as follows: Inhibition of the binding of 3H-YM-09151-2 to human dopamine D4 receptors. The settings on record: [3H]YM-09151-2 0.06 nM; for pIC50: membranes of CHO-cells, read-out: D4-bind. IC50; for inhibition at 0.05 µM: test compound at 50 nM, read-out: D4-bind. % inhibition of binding at 50 nM. How it is done:
Inhibition of the Binding of ^3H-YM-09151-2 to Human Dopamine D4 Receptors
By this method the inhibition by drugs of the binding of [^3H]YM-09151-2 (0.06 nM) to membranes of human cloned dopamine D4.2 receptors expressed in CHO-cells is determined in vitro. Method modified from NEN Life Science Products, Inc., technical data certificate PC2533-10/96. The results are given in the following Table 1 as IC50-values or as percent inhibition of the binding of ^3H-YM-09151 -2 at the concentration of the test compound indicated.

T1 sequence (P35462 whole entry): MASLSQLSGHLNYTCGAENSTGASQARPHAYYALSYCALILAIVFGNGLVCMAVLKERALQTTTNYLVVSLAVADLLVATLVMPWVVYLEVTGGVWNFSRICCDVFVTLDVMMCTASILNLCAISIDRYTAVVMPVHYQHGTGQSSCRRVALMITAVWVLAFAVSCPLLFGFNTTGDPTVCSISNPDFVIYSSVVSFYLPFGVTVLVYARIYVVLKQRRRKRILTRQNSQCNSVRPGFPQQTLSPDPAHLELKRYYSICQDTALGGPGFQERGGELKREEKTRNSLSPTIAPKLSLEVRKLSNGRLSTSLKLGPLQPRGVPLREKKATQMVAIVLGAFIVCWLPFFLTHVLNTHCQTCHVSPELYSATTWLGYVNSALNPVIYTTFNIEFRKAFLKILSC

Broadly, the pIC50 is −log10 of the IC50, conventionally taken in molar units. On to `Cc1c(Oc2cccc(N(C)C)c2)cccc1N1CCN(CCCc2c[nH]c3ccccc23)CC1` [Compound 1a], for which the results for the pIC50 in assay [1] and in assay [2] were 7.59 and 7.32, respectively.
Turning to `Cc1c(N2CCOCC2)cccc1N1CCN(CCCc2c[nH]c3ccccc23)CC1` [Compound 1b, 1-[3-(1H-Indol-3-yl)propyl]-4-[2-methyl-3-(morpholin-4-yl)-phenyl]piperazine], the pIC50 in assay [1] was 6.66; in assay [2] it was 8.23.
Taken in the same sequence, the figures for `CCN(CC)c1cccc(Oc2cccc(N3CCN(CCCc4c[nH]c5ccc(F)cc45)CC3)c2C)c1` [Compound 2a] were 8.00 and 8.27.
What is called inhibition is how much of the control response was suppressed. Consider `Cc1c(N2CCOCC2)cccc1N1CCCN(CCCc2c[nH]c3ccc(F)cc23)CC1` [Compound 2aa, 1-[3-(Morpholin-4-yl)-2-methylphenyl]-4-[3-(5-fluoro-1H-indol-3-yl)propyl]-1,4-diazepane], for which the inhibition at 0.05 µM in assay [1] was found to be 40%; in assay [2], 53%.
Taken in the same sequence, the figures for `CCN(CC)c1cccc(Oc2cccc(N3CCN(CCCCc4c[nH]c5ccc(Cl)cc45)CC3)c2C)c1` [Compound 2ab, 1-{3-[3-(Diethylamino)phenoxy]-2-methylphenyl}-4-[4-(5-chloro-1H-indol-3-yl)butyl]piperazine] were 83% and 53%.
Regarding `COc1cc(Oc2cccc(N3CCN(CCCc4c[nH]c5ccc(F)cc45)CC3)c2C)cc(OC)c1OC` [Compound 2b, 1-[2-Methyl-3-(3,4,5-trimethoxyphenoxy)phenyl]-4-[3-(5-fluoro-1H-indol-3-yl)propyl]piperazine], the negative logarithm of the IC50 (pIC50) in assay [1] is 8.17. The inhibition at 0.05 µM in assay [2] was 98%.
Take `CCN(CC)c1cccc(Oc2cccc(N3CCN(CCCc4c[nH]c5ccc(Cl)cc45)CC3)c2C)c1` [Compound 2c, 1-{3-[3-(Diethylamino)phenox]-2-methylphenyl}-4-[3-(5-chloro-1H-indol-3-yl)propyl]piperazine]: the pIC50 was 7.89 in assay [1] and 8.26 in assay [2].
For `CCN(CC)c1cccc(Oc2cccc(N3CCN(CCCc4c[nH]c5c(F)cc(F)cc45)CC3)c2C)c1` [Compound 2d, 1-{3-[3-(Diethylamino)phenoxy]-2-methylphenyl}-4-[3-(5,7-difluoro-1H-indol-3-yl)propyl]piperazine], the inhibition at 0.05 µM in assay [1] came out at 70%. Moreover, in assay [2], the pIC50 is 7.92.
Taken in the same sequence, the figures for `COc1cc(Oc2cccc(N3CCN(CCCc4c[nH]c5ccc(Cl)cc45)CC3)c2C)cc(OC)c1OC` [Compound 2e, 1-[2-Methyl-3-(3,4,5-trimethoxyphenoxy)phenyl}-4-[3-(5-chloro-1H-indol-3-yl)propyl]piperazine] were 71% and 8.00.
`CCN(CC)c1cccc(Oc2cccc(N3CCN(CCCc4c[nH]c5ccccc45)CC3)c2C)c1` [Compound 2f, 1-{3-[3-(Diethylamino)phenoxy]-2-methylphenyl}-4-[3-(1H-indol-3-yl)propyl]piperazine]: the inhibition at 0.05 µM in assay [1] was 70%. The pIC50 in assay [2] was 7.46.
With `Cc1c(N2CCCN(CCCc3c[nH]c4ccc(F)cc34)CC2)cccc1N1CC(C)OC(C)C1` (stereo not shown) [Compound 2g, 1-[3-(2,6-Dimethylmorpholin-4-yl)-2-methylphenyl]-4-[3-(5-fluoro-1H-indol-3-yl)propyl]-1,4-diazepan], the inhibition at 0.05 µM in assay [1] turned out to be 65%. For the same molecule, the pIC50 in assay [2] was 7.59.
In the case of `Cc1c(Oc2cccc(N(C)C)c2)cccc1N1CCN(CCCc2c[nH]c3ccc(F)cc23)CC1` [Compound 2h, 1-{3-[3-(Dimethylamino)phenoxy]-2-methylphenyl}-4-[3-(5-fluoro-1H-indol-3-yl)propyl]piperazine], the inhibition at 0.05 µM in assay [1] was 77%. Moreover, the pIC50 in assay [2] is 7.43.
Regarding `Cc1c(Oc2ccc3c(c2)OCO3)cccc1N1CCN(CCCc2c[nH]c3ccccc23)CC1` [Compound 2i, 1-[3-(1,3-Benzodioxolan-5-yloxy)-2-methylphenyl]-4-[3-(1H-indol-3-yl)propyl]piperazine], the inhibition at 0.05 µM in assay [1] worked out at 54%. The pIC50 in assay [2] was 7.46.
Consider `Cc1c(N2CCN(CCCc3c[nH]c4ccc(F)cc34)CC2)cccc1N1CC(C)OC(C)C1` (stereo not shown) [Compound 2j, 1-[3-(2,6-Dimethylmorpholin-4-yl)-2-methylphenyl]-4-[3-(5-fluoro-1H-indol-3-yl)propyl]piperazine], for which the inhibition at 0.05 µM in assay [1] was 57%. Further, in assay [2], the pIC50 is 7.44.
For `CCN(CC)c1cccc(Oc2cccc(N3CCN(CCCCc4c[nH]c5ccc(F)cc45)CC3)c2C)c1` [Compound 2k, 1-{3-[3-(Diethylamino)phenoxy]-2-methylphenyl}-4-[4-(5-fluoro-1H-indol-3-yl)butyl]piperazine], the inhibition at 0.05 µM in assay [1] came out at 96%. Besides, the pIC50 in assay [2] is 7.40.
Taken in the same sequence, the figures for `Cc1c(N2CCOCC2)cccc1N1CCN(CCCc2c[nH]c3ccc(Cl)cc23)CC1` [Compound 2l, 1-[3-(Morpholin-4-yl)-2-methylphenyl]-4-[3-(5-chloro-1H-indol-3-yl)propyl]piperazine] were 40% and 7.52.
Consider `Cc1c(Oc2cccc(N(C)C)c2)cccc1N1CCN(CCCc2c[nH]c3ccc(Cl)cc23)CC1` [Compound 2m], for which the inhibition at 0.05 µM in assay [1] was 74%. Moreover, the pIC50 in assay [2] is 7.24.
Turning to `Cc1c(N2CCN(CCCc3c[nH]c4ccccc34)CC2)cccc1N1CCC[C@H]1CO` [Compound 2o, (S)-1-[3-(2-Hydroxymethylpyrrolidin-1-yl)-2-methylphenyl]-4-[3-(1H-indol-3-yl)propyl]piperazine], the inhibition at 0.05 µM in assay [1] was 19%. The pIC50 in assay [2] is 7.28.
For the molecule `Cc1c(N2CCN(CCCc3c[nH]c4ccc(F)cc34)CC2)cccc1N1CCC[C@H]1CO` [Compound 2p, (S)-1-[3-(2-Hydroxymethylpyrrolidin-1-yl)-2-methylphenyl]-4-[3-(5-fluoro-1H-indol-3-yl)propyl]piperazine], the inhibition at 0.05 µM in assay [1] was found to be 54%; in assay [2] it was 67%.
Take `Cc1c(Oc2ccc3c(c2)OCO3)cccc1N1CCN(CCCc2c[nH]c3ccc(F)cc23)CC1` [Compound 2q, 1-[3-(1,3-Benzodioxolan-5-yloxy)-2-methylphenyl]-4-[3-(5-fluoro-1H-indol-3-yl)propyl]piperazine]: the inhibition at 0.05 µM in assay [1] was 61%. For the same molecule, the pIC50 in assay [2] was 7.37.
Regarding `Cc1c(Oc2cccc(N(C)C)c2)cccc1N1CCN(CCCCc2c[nH]c3c(F)cc(F)cc23)CC1` [Compound 2r, 1-{3-[3-(Dimethylamino)phenoxy]-2-methylphenyl}-4-[4-(5,7-difluoro-1H-indol-3-yl)butyl]piperazine], in assay [1], the inhibition at 0.05 µM stood at 90%. In addition, the pIC50 in assay [2] was 7.21.
Regarding `Cc1c(N2CCN(CCCc3c[nH]c4c(F)cc(F)cc34)CC2)cccc1N1CCC[C@H]1CO` [Compound 2s, (S)-1-[3-(2-Hydroxymethylpyrrolidin-1-yl)-2-methylphenyl]-4-[3-(5,7-difluoro-1H-indol-3-yl)propyl]piperazine], the inhibition at 0.05 µM in assay [1] came to 36%. Besides, in assay [2], the pIC50 was 7.39.
The corresponding values for `Cc1c(Oc2ccc3c(c2)OCO3)cccc1N1CCN(CCCc2c[nH]c3c(F)cc(F)cc23)CC1` [Compound 2t, 1-[3-(1,3-Benzodioxolan-5-yloxy)-2-methylphenyl]-4-[3-(5,7-difluoro-1H-indol-3-yl)propyl]piperazine] are 54% and 7.33.
Taken in the same sequence, the figures for `Cc1c(N2CCN(CCCc3c[nH]c4c(F)cc(F)cc34)CC2)cccc1N1CC(C)OC(C)C1` (stereo not shown) [Compound 2w, 1-[3-(2,6-Dimethylmorpholin-4-yl)-2-methylphenyl]-4-[3-(5,7-difluoro-1H-indol-3-yl)propyl]piperazine] were 43% and 7.47.
For `CCN(CC)c1cccc(Oc2cccc(N3CCCN(CCCc4c[nH]c5c(F)cc(F)cc45)CC3)c2C)c1` [Compound 2x, 1-{3-[3-(Diethylamino)phenoxy]-2-methylphenyl}-4-[3-(5,7-difluoro-1H-indol-3-yl)propyl]-1,4-diazepane], the inhibition at 0.05 µM in assay [1] stood at 66%. For the same molecule, the pIC50 in assay [2] was 7.12.
The corresponding values for `Cc1c(Oc2cccc(N(C)C)c2)cccc1N1CCN(CCCc2c[nH]c3c(F)cc(F)cc23)CC1` [Compound 2z, 1-{3-[3-(Dimethylamino)phenoxy]-2-methylphenyl}-4-[3-(5,7-difluoro-1H-indol-3-yl)propyl]piperazine] are 59% and 7.49.

Values taken from patent publication US20030083336A1, “Phenylpiperazinyl derivatives” (H. Lundbeck A/S, priority 1999, published 2003).
